Measurements reported in patent US20060122181A1, “Heteroaromatic pentacyclic compound and medicinal use thereof” (Japan Tobacco Inc., priority 2003, published 2006).

Experiments:
[1] = test system: male ob/ob mice; assay: Hypoglycemic activity in ob/ob mice; type: in vivo; conditions: fasting, relative to control group
Protocol: A 0.5% methyl cellulose suspension of the test compound was orally administered to 6- to 9-week-old male ob/ob mice grouped according to the glucose level. Only a 0.5% methyl cellulose solution was administered to a control group.
Blood was drawn under fasting condition, which condition was started simultaneously with the administration by means of removing the feed. The blood was drawn under anesthesia from the orbital vein 3 hours after the administration. The blood thus taken was centrifuged and the glucose level was measured from the obtained plasma by the hexokinase method (glucose measurement kit). For evaluation, the percentage (%) of decrease in the glucose level of the test compound-administered group relative to the control group is shown.

[2] = target: T1, Recombinant human protein tyrosine phosphatase 1B (Homo sapiens, UniProt P18031); assay: Protein tyrosine phosphatase 1B inhibitory activity (malachite green, phosphorylated insulin receptor peptide substrate); type: biochemical; conditions: recombinant human PTP1B, 60 min room temperature, absorbance 650 nm
T1 construct: purchased UBI
T1 sequence (P18031 1-435): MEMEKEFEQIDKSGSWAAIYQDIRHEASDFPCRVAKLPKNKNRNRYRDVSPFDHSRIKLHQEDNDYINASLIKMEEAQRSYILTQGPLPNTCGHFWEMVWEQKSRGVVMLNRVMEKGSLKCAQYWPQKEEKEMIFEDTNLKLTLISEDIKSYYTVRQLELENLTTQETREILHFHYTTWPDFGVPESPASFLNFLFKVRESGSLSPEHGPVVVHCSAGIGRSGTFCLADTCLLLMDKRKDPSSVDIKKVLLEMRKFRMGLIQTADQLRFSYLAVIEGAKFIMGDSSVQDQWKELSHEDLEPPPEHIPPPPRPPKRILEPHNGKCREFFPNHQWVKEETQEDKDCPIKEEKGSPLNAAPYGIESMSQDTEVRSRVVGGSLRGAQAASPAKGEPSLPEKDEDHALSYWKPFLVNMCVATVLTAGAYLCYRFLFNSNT
Protocol: Preparation of Assay Buffer:
A 50 mM Tris-HCl buffer (pH 7.5), 50 mM NaCl and 3 mM dithiothreitol (DTT) were prepared.
[…] 0.1, 0.3, 1, 3 and 10 μM of the test compound were prepared and diluted with the above-mentioned assay buffer to the final dimethyl sulfoxide (DMSO) concentration of not more than 1%. As the control, the assay buffer was used.
Preparation of Substrate:
Recombinant human protein tyrosine phosphatase 1B (manufactured by UBI) was diluted with the above-mentioned assay buffer (1.2 ng/25 μl).
The sample (10 μl) prepared as mentioned above and a substrate (25 μl) were successively added to a 96 well plate, and the enzyme (25 μl) prepared as mentioned above was added and mixed. The mixture was incubated at room temperature for 60 min and a malachite green (120 μl, Biomol), which is a color reagent, was added. The mixture was further incubated at room temperature for 20 min to allow for color development. An absorbance at 650 nm was measured on a plate reader based on which the protein tyrosine phosphatase 1B inhibitory activity of the test compound was evaluated.

| SMILES | blood glucose decreasing rate (%) 3 hours later ([1]; dose 1 mg/kg oral) [%] | IC50 [2] [µM] | blood glucose decreasing rate (%) 3 hours later ([1]; dose 3 mg/kg oral) [%] | melting point |
| --- | --- | --- | --- | --- |
| CCCC(CCC)c1ccc(N(C)Cc2ccc(-c3csc(CN(C)S(=O)(=O)c4ccc(C(=O)O)cc4)n3)cc2)cc1 [Example 1-15] | 35 | 0.13 | – | – |
| CCC(CC)c1ccc(N(Cc2ccc(-c3csc(COc4cncc(C(=O)O)c4)n3)cc2)C(C)C)cc1 [Example 1-1, 5-{4-[4-({[4-(1-Ethylpropyl)phenyl]isopropylamino}methyl)-phenyl]thiazol-2-ylmethoxy}nicotinic acid] | 45 | 0.28 | – | – |
| CN(Cc1ccc([C@H]2CC[C@H](C)CC2)cc1)c1ccc(-c2csc(COC(=O)N(CC(=O)O)Cc3ccccc3)n2)cc1 [Example 3-108] | 29 | 0.16 | – | – |
| CCCC(CCC)c1ccc(CN(C)c2ccc(-c3csc(CN(CC(=O)O)Cc4ccccc4)n3)cc2)cc1 [Example 3-36] | – | 0.1 | 52 | – |
| CCCC(CCC)c1ccc(OCc2ccc(-c3csc(Cn4nc(C(=O)O)cc4C(C)(C)C)n3)cc2)cc1 [Example 1-178] | – | 0.44 | – | 195 to 196.5 °C |
| CCCC(CCC)c1ccc(OCc2ccc(-c3csc(CN(CC(=O)O)Cc4nc5ccccc5n4C)c3)cc2)cc1.O=S(=O)(O)O [Example 4-55] | – | 0.17 | – | 137.5 to 141.5 °C |
| CCC(CC)c1ccc(COc2ccc(-c3csc(CN(CC(=O)O)Cc4ccc(F)cc4)n3)cc2)cc1 [Example 3-14] | – | 0.38 | – | 153 to 155 °C |
| CCCC(CCC)c1ccc(OCc2ccc(-c3ccc(CN(CC(=O)O)Cc4cc5ccccc5s4)s3)cc2)cc1 [Example 4-97] | – | 0.11 | – | 202.3 to 204.4 °C |
| CCCC(CCC)c1ccc(COc2ccc(-c3csc(CN4CCN(c5ccccc5C(=O)O)CC4)n3)cc2)cc1 [Example 1-155] | – | 0.37 | – | 137 to 138 °C |
| C=CCn1c(CN(CC(=O)O)Cc2ccc(-c3ccc(COc4ccc(C(CCC)CCC)cc4)cc3)s2)nc2ccccc21 [Example 4-106] | – | 0.16 | – | 141.2 to 144.1 °C |
| CCCC(CCC)c1ccc(Cn2cc(-c3csc(CN4CCN(c5cccc(C(=O)O)c5)CC4)n3)c3ccccc32)cc1 [Example 1-172] | – | 0.28 | – | 107 to 110 °C |
| CCCC(CCC)c1ccc(OCc2ccc(-c3ccc(CN(CC(=O)O)Cc4cc(-c5ccccc5)cs4)s3)cc2)cc1 [Example 4-98] | – | < 0.1 | – | 181.4 to 184.5 °C |
| CCCC(CCC)c1ccc(OCc2cccc(-c3csc(CN4CCc5ccc(C(=O)O)cc5C4)c3)c2)cc1 [Example 4-73] | – | 0.19 | – | 69.4 to 78.3 °C |
| CCCC(CCC)c1ccc(OCc2ccc(-c3ccc(CN(CC(=O)O)c4nc5ccccc5s4)s3)cc2)cc1 [Example 4-99] | – | < 0.1 | – | 104.4 to 107.2 °C |
| CCCC(CCC)c1ccc(OCc2ccc(-c3csc(CN(CC(=O)O)Cc4ccc(-c5cccs5)s4)c3)cc2)cc1 [Example 4-93] | – | < 0.1 | – | 203.8 to 206.2 °C |
| CCCC(CCC)c1ccc(OCc2ccc(-c3ccc(CN(CC(=O)O)Cc4cc(C(F)(F)F)ccc4Cl)s3)cc2)cc1 [Example 4-75] | – | < 0.1 | – | 92.6 to 94.7 °C |
| Cc1ccc(OCc2ccc(C3CCCCC3)cc2)c(-c2csc(CN(C)[C@@H](Cc3ccccc3)C(=O)O)c2)c1 [Example 4-102] | – | 0.37 | – | 117 to 123.1 °C |
| CN(C[C@H]1CC[C@H](c2ccc(Cl)cc2)CC1)c1ccc(-c2csc(CN3CCC(C(=O)O)(c4ccccc4)CC3)n2)cc1 [Example 3-70] | – | 0.16 | – | 167 to 170 °C (dec.) |
| CCCC(CCC)c1ccc(OCc2ccc(-c3ccc(CN(CC(=O)O)CC(=O)Nc4ccc(C(C)C)cc4)s3)cc2)cc1 [Example 4-9] | – | 0.12 | – | 172 to 174 °C |

| SMILES | blood glucose decreasing rate (%) 3 hours later ([1]; dose 1 mg/kg oral) [%] | IC50 [2] [µM] | blood glucose decreasing rate (%) 3 hours later ([1]; dose 3 mg/kg oral) [%] | melting point |
| --- | --- | --- | --- | --- |
| CCCC(CCC)c1ccc(COc2ccc(-c3csc(CN4CCN(c5cccc(C(=O)O)c5)CC4)n3)cc2)cc1 [Example 1-156] | – | 0.19 | – | 153 to 154 °C |
| CN(C[C@H]1CC[C@H](c2ccc(Cl)cc2)CC1)c1ccc(-c2csc(CN(CC(=O)O)Cc3ccccc3)n2)cc1 [Example 3-34] | – | 0.16 | – | 180 to 182 °C |
| CCCC(CCC)c1ccc(OCc2ccc(-c3csc(CN(CC(=O)O)Cc4ccc(-n5ccnc5)cc4)c3)cc2)cc1 [Example 4-91] | – | 0.17 | – | 167.5 to 169.9 °C |
| O=C(O)CCN(Cc1ccccc1)Cc1ccc(-c2ccc3c(c2)CCC3Cc2ccc(C3CCCCC3)cc2)s1 (centres unmarked) [Example 4-84] | – | 0.27 | – | 121 to 128 °C |
| C[C@H]1CC[C@H](c2ccc(COc3ccc(-c4ccc(CN(CC5CCCCC5)S(=O)(=O)c5ccc(C(=O)O)cc5)s4)cc3)cc2)CC1 [Example 4-79] | – | < 0.1 | – | 234 to 241.8 °C |
| CCCC(CCC)c1ccc(COc2ccc(-c3csc(CN4CCC(c5cccc(C(=O)O)c5)CC4)n3)cc2)cc1 [Example 1-162] | – | 0.21 | – | 187 to 189 °C |
| CCCC(CCC)c1ccc(OCc2ccc(-c3ccc(CN(CC(=O)O)Cc4c[nH]nc4-c4ccccc4)s3)cc2)cc1 [Example 4-95] | – | 0.28 | – | 145.9 to 149.3 °C |
| CCCC(CCC)c1ccc(OCc2ccc(-c3csc(CN(CC(=O)O)Cc4nc5ccccc5[nH]4)c3)cc2)cc1 [Example 4-6] | – | 0.092 | – | 153 to 155 °C |
| CCCC(CCC)c1ccc(OCc2ccc(-c3csc(COc4cc(C(=O)O)ccc4N)c3)cc2)cc1 [Example 4-61] | – | 0.25 | – | 156.5 to 165.5 °C |
| CCCC(CCC)c1ccc(COc2ccc(-c3csc(CN4Cc5ccccc5C[C@H]4C(=O)O)n3)cc2)cc1 [Example 3-26] | – | 0.11 | – | 90 to 93 °C |
| CCCC(CCC)c1ccc(OCc2ccc(-c3ccc(CN(CC(=O)OCC)CC(=O)c4ccc(N5CCCC5)cc4)s3)cc2)cc1.Cl [Example 4-82] | – | 0.48 | – | 75.3 to 79.3 °C |
| CCCC(CCC)c1ccc(OCc2ccc(-c3csc(CN(CC(=O)O)Cc4cc5ccccc5o4)c3)cc2)cc1 [Example 4-92] | – | < 0.1 | – | 146.7 to 148.9 °C |
| CCN(Cc1ccc(C2CCCCC2)cc1)c1ccc(-c2ccc(CN(CC(=O)O)Cc3ccccn3)s2)cc1 [Example 4-66] | – | 0.45 | – | 128 to 131 °C |
| CCCC(CCC)c1ccc(OCc2ccc(-c3ccc(CN(CC(=O)O)Cc4ccc(OC)cc4)s3)cc2)cc1 [Example 4-77] | – | 0.4 | – | 195.7 to 196.8 °C |
| CCCC(CCC)c1ccc(OCc2ccc(-c3csc(CN(CC(=O)O)Cc4ccc5ccccc5n4)c3)cc2)cc1 [Example 4-87] | – | 0.12 | – | 137.3 to 138.7 °C |
| CCCC(CCC)c1ccc(OCc2ccc(-c3csc(CN4CCc5ccc(C(=O)O)cc5C4)n3)cc2)cc1 [Example 1-160] | – | 0.31 | – | 148.5 to 149.5 °C |
| CCCC(CCC)c1ccc(OCc2ccc(-c3csc(CC4CCN(c5ccc(C(=O)O)cc5)CC4)n3)cc2)cc1 [Example 1-181] | – | 0.2 | – | 174 to 175 °C |
| CCCC(CCC)c1ccc(OCc2ccc(-c3ccc(CN(CC(=O)O)Cc4nc5ccccc5o4)s3)cc2)cc1 [Example 4-96] | – | 0.12 | – | 127.4 to 130 °C |
